“Also recorded” adds a separate entry of the source.
Tests used:
[1] = system: femoral arteries of aged NOX5 KI and WT mice; experiment: Wire myograph, relaxing responses of isolated femoral arteries; set-up: species or system mouse; settings: for Relaxation induced by BAY 60-2770, WT versus KI / Endothelium-independent relaxation induced by PAPA/NO, WT versus KI: femoral arteries, 0.01-10 μM; for Reversal of impaired Ach-induced relaxation by antioxidant: femoral arteries of aged KI mice contracted with 10 μM phenylephrine, Ach 10 μM
Experimental: After mice were sacrificed, thoracic aortae, femoral and saphenous arteries were dissected free from perivascular adipose tissue and mounted in a wire myograph (DMT, Aarhus, DK). The organ chamber was filled with Krebs-Ringer bicarbonate-buffered salt solution (KRB) that was continuously aerated with 95% O2/5% CO2 and maintained at 37° C. Passive stretch procedure was performed to mimic the physiologically relevant internal lumen diameter as previously described. Arterial contractile and relaxing responses were recorded at lumen diameters corresponding to a distending pressure of 100 mmHg in thoracic aorta and femoral artery and at 90% of this diameter in the resistance-sized saphenous artery. […] The diameter tension relationships were constructed according to the law of Laplace for a cylindrical tube: P=T/R (with P for transmural pressure, T for wall tension and R for the lumen radius of the tube). Consequently, wall stiffness can be determined equally by recording 1) changes in tension in response to imposed changes in radius (wire myography) or 2) changes in radius in response to changes in transmural pressure (pressure myography). Here we used the former approach because it has a higher throughput than the latter. Stress-strain relationships and even better “incremental elastic (Young's) modulus” (which require additional recording of wall thickness) only come into play to discriminate between structural and material property contributions to changes in arterial stiffness. Part of the isolated thoracic aorta was studied in the absence and part in the continuous presence of 10 μM indomethacin to inhibit production of prostaglandins that can act as endothelium-derived vasoactive factors in this vessel. The vessels were tested for their contractile response to 40 mM K+, concentration-response curves of phenylephrine (0.01 to 100 μM) and endothelin-1 (1-256 nM) followed by acetylcholine (Ach) (0.01 to 100 μM), PAPA/NO (0.01-10 μM) or Bay60-2770 (0.01-10 μM)-induced relaxations. The wall tension of the vessel segment was continuously recorded with LabChart Pro (ADInstruments, Oxford, UK).

[2] = system: saphenous arteries of aged NOX5 KI and WT mice; experiment: Wire myograph, relaxing responses of isolated saphenous arteries; set-up: species or system mouse; settings: for Endothelium-independent relaxation induced by PAPA/NO, WT versus KI: saphenous arteries, 0.01-10 μM
Experimental: (§1) After mice were sacrificed, thoracic aortae, femoral and saphenous arteries were dissected free from perivascular adipose tissue and mounted in a wire myograph (DMT, Aarhus, DK). The organ chamber was filled with Krebs-Ringer bicarbonate-buffered salt solution (KRB) that was continuously aerated with 95% O2/5% CO2 and maintained at 37° C. Passive stretch procedure was performed to mimic the physiologically relevant internal lumen diameter as previously described. Arterial contractile and relaxing responses were recorded at lumen diameters corresponding to a distending pressure of 100 mmHg in thoracic aorta and femoral artery and at 90% of this diameter in the resistance-sized saphenous artery. […] The diameter tension relationships were constructed according to the law of Laplace for a cylindrical tube: P=T/R (with P for transmural pressure, T for wall tension and R for the lumen radius of the tube). Consequently, wall stiffness can be determined equally by recording 1) changes in tension in response to imposed changes in radius (wire myography) or 2) changes in radius in response to changes in transmural pressure (pressure myography). Here we used the former approach because it has a higher throughput than the latter. Stress-strain relationships and even better “incremental elastic (Young's) modulus” (which require additional recording of wall thickness) only come into play to discriminate between structural and material property contributions to changes in arterial stiffness. Part of the isolated thoracic aorta was studied in the absence and part in the continuous presence of 10 μM indomethacin to inhibit production of prostaglandins that can act as endothelium-derived vasoactive factors in this vessel. […] The wall tension of the vessel segment was continuously recorded with LabChart Pro (ADInstruments, Oxford, UK).

[3] = system: femoral arteries of aged NOX5 KI mice; experiment: Superoxide formation, DHE staining of femoral artery cryo-sections; set-up: species or system mouse; settings: pre-treatment with 500 μM L-NAME for 30 min at 37° C.
Experimental: Superoxide was measured in femoral arteries using the florescence dye dihydroethidium (DHE) (Thermo Scientific Technology, The Netherlands). Frozen femoral arteries cryo-sections were fixated in 4% paraformaldehyde (PFA) in PBS and then incubated with 2 μM DHE for 30 minutes at 37° C. After three washing steps with PBS, slices were incubated with DAPI (Sigma-Aldrich, The Netherlands) […] for 10 min. Sections were washed in PBS and then mounted using a Dako Fluorescence Mounting Medium ([…], Agilent Technologies). Immunofluorescent signals were viewed using a Leica DM13000 B fluorescence microscope. Some arteries were pre-treated with 500 μM L-NAME for 30 min at 37° C. before performing the DHE staining.

[4] = system: thoracic aortae of aged NOX5 KI and WT mice; experiment: Wire myograph, responses of isolated thoracic aortae; set-up: species or system mouse; settings: for Endothelium-independent relaxation induced by PAPA/NO, WT versus KI: thoracic aortae with/without indomethacin, 0.01-10 μM
Experimental: as §1

[5] = system: elevated blood pressure; settings: by improving endothelial function; cited from earlier work
[6] = system: elevated blood pressure induced by NOS uncoupling; settings: cited from earlier work

With `O=C(O)CCCCN(CCc1cc(F)ccc1OCc1ccc(-c2ccc(C(F)(F)F)cc2)cc1)Cc1ccc(C(=O)O)cc1` [BAY 60-2770] the “Relaxation induced by BAY 60-2770, WT versus KI” value [1] was “Neither the PAPA/NO (FIGS. 13 A-C) nor the BAY 60-2770 response (FIG. 11 D) differed between WT and KI mice” and the “Relaxation induced by BAY 60-2770, WT versus KI” value ([1]; listed as Bay60-2770) was “did not differ”.
In the case of `COC(=O)[C@@H](N)CCCNC(=N)N[N+](=O)[O-]` [L-NAME], the “Effect of L-NAME on Ach-induced relaxation” value (“Effect of L-NAME” for short) ([2]; saphenous arteries of aged KI and WT mice contracted with endothelin-1, 100 μM L-NAME) is reported as “did not modify the relaxing effects of Ach”, the “Superoxide formation (DHE staining), increase in KI versus WT” value [3] is reported as “inhibited” and the “Effect of L-NAME” value ([4]; thoracic aortae of aged KI and WT mice contracted with 256 nM endothelin-1, 100 μM L-NAME) is reported as “reversed”. The “Effect of L-NAME” value ([1]; femoral arteries of aged KI and WT mice contracted with 256 nM endothelin-1, 100 μM L-NAME) was “reversed”.
With `CC(=O)N[C@@H](CS)C(=O)O` [N-acetylcysteine] the “Reversal of impaired Ach-induced relaxation by antioxidant” value ([1]; 10 μM N-acetylcysteine) was “not reversed”.
With `CCCN(CCCN)/[N+]([O-])=N/O` [PAPA/NO] the “Endothelium-independent relaxation induced by PAPA/NO, WT versus KI” value [2] was “Neither the PAPA/NO (FIGS. 13 A-C) nor the BAY 60-2770 response (FIG. 11 D) differed between WT and KI mice”, the “Endothelium-independent relaxation induced by PAPA/NO, WT versus KI” value ([2]; listed as PAPA NO) was “did not differ” and the “Endothelium-independent relaxation induced by PAPA/NO, WT versus KI” value [4] was “Neither the PAPA/NO (FIGS. 13 A-C) nor the BAY 60-2770 response (FIG. 11 D) differed between WT and KI mice”. For the same molecule, the “Endothelium-independent relaxation induced by PAPA/NO, WT versus KI” value ([4]; listed as PAPA NO) was “did not differ”, the “Endothelium-independent relaxation induced by PAPA/NO, WT versus KI” value [1] was “Neither the PAPA/NO (FIGS. 13 A-C) nor the BAY 60-2770 response (FIG. 11 D) differed between WT and KI mice” and the “Endothelium-independent relaxation induced by PAPA/NO, WT versus KI” value ([1]; listed as PAPA NO) was “did not differ”.
For `Nc1nc2ncc(CNc3ccc(C(=O)N[C@@H](CCC(=O)O)C(=O)O)cc3)nc2c(=O)[nH]1` [folic acid], the “Reduction of elevated blood pressure, clinical” value [5] is listed as “clinically effective to reduce elevated blood pressure”.
In the case of `C[C@H](O)C(=O)C1=Nc2c(nc(N)[nH]c2=O)NC1` [sepiapterin], the “Blood pressure lowering, preclinical” value [6] is given as “lower elevated blood pressure induced by NOS uncoupling” and the “Ach-induced relaxation after pre-treatment with sepiapterin” value ([1]; femoral arteries of aged KI mice pre-contracted with phenylephrine, sepiapterin 100 μM, compared with WT) is given as “improved relaxation in KI; also recorded: greatly improved and became indistinguishable from those in WT”.
In the case of `CC1(C)CC(O)CC(C)(C)N1[O]` [tempol], the “Reversal of impaired Ach-induced relaxation by antioxidant” value ([1]; 100 μM tempol) is reported as “not reversed”.
